These results are taken from patent publication EP0351767A2, “Use of potassium channel activators to inhibit myocardial cell necrosis and to maintain the functioning of the heart during myocardial ischemia and/or reperfusion” (E.R. SQUIBB & SONS, INC., priority 1988, dated 1990).

Data set [1] deals with Ischemic-Reperfused Myocardium. The following applies: infusion prior to and during a 15-min coronary occlusion; 3-h reperfusion period; cited from earlier work.
Data set [2] deals with rat portal vein. The experiment in a line: Inhibition of spontaneous mechanical activity (twitch height and frequency) in isolated rat portal vein. The following applies: for pIC50: Rattus norvegicus. The procedure:
(§1) A bicarbonate buffered physiological salt solution (PSS) was used containing, in mM: 118.4 NaCl, 4.7 KCl, 1.2 KH₂PO₄ 1.2 MgSO₄, 2.5 CaCl₂, 25.0 NaHCO₃ and 11.7 glucose. PSS with varying concentrations of KCl was prepared by addition of appropriate amounts of KCl from a 4M KCl stock. Calcium free PSS was prepared by deletion of CaCl₂ and addition of 1.0 mM [ethylenebis(oxyethylenitrilo)]-tetraacetic acid (EGTA). All solutions were aerated with 95% O₂-5% CO₂ such that the pH was 7.4. Experiments were conducted at 37°C.
Stock solutions of test compounds were prepared daily. The compounds were dissolved in water or DMSO as appropriate.
(§2) Normotensive male Wistar Kyoto rats approximately 14 weeks old were sacrificed using CO₂. The thoracic aorta and portal vein were quickly removed and placed into cold PSS. Blood was rinsed from the lumen and adherent connective tissue was carefully removed. Rings approximately 4 mm in width were cut from each aorta. The endothelium was mechanically removed by inserting a wire into the lumen and gently rolling the ring on filter paper moistened with PSS. The aortic rings were mounted on stainless steel tissue wires attached to tissue holders. An intact segment of portal vein extending approximately 2 cm from the liver hilus was mounted longitudinally on tissue holders. The tissues were suspended in individual 20 ml organ chambers and connected to a micrometer for control of tissue length and a Grass FT.03 force transducer. Mechanical responses were recorded on Grass Model 7D polygraphs.
The rat portal vein segments were gradually stretched over a 1 to 2 hour equilibration period to a preload of 0.5 g. When the frequency and height of the spontaneous twitches had stabilized, propranolol (1 µM) was added and cumulative concentration response curves were obtained for the test compounds. A steady state reduction of the twitch height and frequency was reached before the next concentration was added.
Force development by the portal vein segments was determined at the peak of the twitch. The effect of each compound on force was calculated relative to the force in its absence. IC₅₀ values were determined at the concentration where 50% of the maximal inhibition force was attained. In addition, the relative frequency of twitches was determined by counting the number of twitches in a 5 minute period following drug addition and determining the change in rate from basal (absence of test compund). Results were then calculated as % inhibition of twitch frequency. Data are report as mean ± SEM.

In data set [3] the test system is aorta. The data set is described as follows: Comparison of potency in aorta (phenylephrine contractions) and portal vein. More on the design: species or system rat. The following applies: portal vein compared with aorta. The procedure:
as §1
as §2, with “The tissues were suspended in individual 20 ml organ chambers and connected to a micrometer for control of tissue length and a Grass FT.03 force transducer.” left out

For data set [4], the system named is isolated, buffer perfused rat hearts. The experiment in a line: Global ischemia (25 min) and reperfusion (30 min) in isolated, buffer perfused rat hearts (Langendorff). Here is the method: For the determination of the effect of the potassium channel activators pinacidil and BRL 34915 (cromakalim) on post-ischemic necrosis and function, isolated, buffer perfused rat hearts were used. Male Sprague-Dawely rats (450-550 g) were used for all experiments. The rats were anesthetized using 30 mg/kg sodium pentobarbital (i.p.) They were intubated and then treated with i.v. heparin (1000 U/kg). While being mechanically ventilated, their hearts were perfused in situ via retrogade cannulation of the aorta. The hearts were then excised and quickly moved to a Langendorff apparatus where they were perfused with Krebs-Henseleit (1.25 mM CaCl₂) buffer at a constant pressure (80 mmHg). A saline-filled latex balloon attached to a metal cannula was then inserted into the left ventricle and connected to a Statham pressure transducer for measurement of left ventricular systolic and developed (LVDP) pressure. The hearts were allowed to equilibrate for 15 minutes at which time end diastolic pressure (EDP) was adjusted to 5 mm Hg and this was maintained for 5 minutes. Pre-ischemia, pre-drug function (HRXLVDP/1000), heart rate, and coronary blood flow (extracorporeal electromagnetic flow probe, Carolina Medical Electronics, King, N.C.) were then determined.
Once the baseline measurements were made, the hearts were divided into 4 groups (n=4-6 each): 1. Hearts receiving vehicle. 2. Hearts receiving 1, 10 or 100 µM pinacidil. 3. Hearts receiving 1 or 7 µM BRL 34915. 4. Hearts receiving 1, 10 or 100 µM nicroandil. Each heart received its respective treatment in the perfusion buffer for 10 minutes at which time functional and flow parameters were again measured. All hearts were then made globally ischemic by shutting off the perfusate for 25 minutes. Reperfusion was then instituted with the normal nondrug treated buffer. Reperfusion was maintained for 30 minutes at which time flow and functional parameters were again measured. Lactate dehydrogenase (LDH) release into the reperfusion effluent was measured and this is a measure of myocardial cell death or necrosis. The severity of ischemia was determined by the return of function during reperfusion, mitigation of contracture (lower end diastolic pressure) and LDH release.

For data set [5], the system named is awake dogs with acute myocardial infarction. The following applies: cited from earlier work.
[6] abbreviates: inhibition of spontaneous mechanical activity (twitch height), cumulative concentration response curves, propranolol 1 µM present, N=4 (cromakalim, pinacidil N=5), read-out: IC₅₀.

Molecules are shown by their SMILES. pIC50: −log10 of the molar value. Like-named read-outs stand apart in the source and are kept apart here.

Consider `O=C(O)c1cccnc1` [nicotinic acid], for which the “recovery of mycocardial segment function (%SS, dL/dt)” value in data set [1] was “significantly improved recovery”.
In the case of `O=C(NCCO[N+](=O)[O-])c1cccnc1` [Nicorandil, N-(2-hydroxyethyl)nicotinamide nitrate ester], the pIC50 in data set [2] (values restated in text, read-out: IC₅₀ (50% of the maximum inhibition) in the inhibition of spontaneous mechanical activity in rat portal vein) is 5.29; in data set [2] (setting [6]), 5.29. In addition, the “potency in the aorta and portal vein” value in data set [3] is recorded as “reduced potency”. The “effectiveness (anti-ischemic)” value in data set [4] (any dose used (1, 10 or 100 µM)) is reported as “not showed to be effective”. The “recovery of mycocardial segment function (%SS, dL/dt)” value in data set [1] was “significantly improved recovery”.
With `CC1(C)Oc2ccc(C#N)cc2[C@@H](N)[C@@H]1O` (relative stereo) [SQ 32,844, (trans)-4-amino-3,4-dihydro-3-hydroxy-2,2-dimethyl-2H-1-benzopyran-6-carbonitrile], the pIC50 in data set [2] (setting [6]) was 4.42.
For `CC1(C)Oc2ccc(C#N)cc2[C@@H](N2CCCC2=O)[C@@H]1O` (racemic) [Cromakalim, (±)-6-cyano-3,4-dihydro-2,2-dimethyl-trans-4-(2-oxo-1-pyrrolidyl)-2H-benzo[b]-pyran-3-ol], in data set [2] (setting [6]), the pIC50 is 6.92. Also, in data set [4] (7 µM), the “LDH release and thus necrosis” value is “reduced”; the “myocardial function during reperfusion” value is on record as “improved”.
With `CC(NC(=NC#N)Nc1ccncc1)C(C)(C)C` (single isomer, unassigned; (+)) [Pinacidil, (+)-2-cyano-1-(4-pyridyl)-3-(1,2,2-trimethylpropyl)guanidine], the pIC50 in data set [2] (setting [6]) is 6.82. Moreover, in data set [4] (10 µM, 30 min reperfusion), the post-ischemic cardiac function result is reported as “significantly improved” and the “reperfusion end diastolic pressure (EDP) (contracture)” value was “reduced”. Besides, the “toxic effects (before ischemia reduction in function)” value in data set [4] (100 µM) is listed as “a tendency for toxic effects”. Also, the anti-ischemic activity result in data set [4] (1 and 100 µM in perfusion buffer for 10 min before ischemia) is given as “did not show any marked anti-ischemic activity”. Further, the “necrosis as measured by lactate dehydrogenase (LDH) release” value in data set [4] (at the doses used (1, 10 or 100 µM)) is “did not significantly reduce necrosis”. In data set [5], the “blood flow to ischemic myocardium” value is “no effect” and the infarct size result is “no effect”.
On to `Nc1nc2c(nc(Br)n2[C@@H]2O[C@@H]3COP(=O)(O)O[C@H]3[C@H]2O)c(=O)[nH]1` [8-Bromo cyclic GMP], for which, in data set [2] (setting [6]), the pIC50 was 4.37. The twitch frequency result in data set [2] (frequency of spontaneous contractions with increasing concentration) is listed as “reduced twitch frequency”.
